According to patent US20250230193A1, “CYCLIC COMPOUND HAVING SELECTIVE KRAS INHIBITORY EFFECT ON HRAS AND NRAS” (CHUGAI SEIYAKU KABUSHIKI KAISHA, priority 2022, published 2025):

What was measured:
[1] = biological target: GDP-bound NRAS wild-type protein (Homo sapiens, UniProt P01111); test: Binding to NRAS by surface plasmon resonance (SPR), Single Cycle Kinetics; conditions: KD ratio, GDP-bound NRAS wild-type vs GDP-bound KRAS wild-type, SPR
[2] = biological target: GDP-bound HRAS wild-type protein (Homo sapiens, UniProt P01112); test: Binding to HRAS by surface plasmon resonance (SPR), Single Cycle Kinetics; conditions: KD ratio, GDP-bound HRAS wild-type vs GDP-bound KRAS wild-type, SPR
Sequence of GDP-bound HRAS wild-type protein (P01112 whole entry): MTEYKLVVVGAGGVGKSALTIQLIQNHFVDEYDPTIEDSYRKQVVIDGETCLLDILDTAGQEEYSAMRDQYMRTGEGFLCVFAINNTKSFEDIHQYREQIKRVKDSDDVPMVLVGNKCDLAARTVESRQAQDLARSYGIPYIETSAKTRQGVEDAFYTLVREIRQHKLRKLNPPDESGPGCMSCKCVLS

Sequence of GDP-bound NRAS wild-type protein (P01111 whole entry): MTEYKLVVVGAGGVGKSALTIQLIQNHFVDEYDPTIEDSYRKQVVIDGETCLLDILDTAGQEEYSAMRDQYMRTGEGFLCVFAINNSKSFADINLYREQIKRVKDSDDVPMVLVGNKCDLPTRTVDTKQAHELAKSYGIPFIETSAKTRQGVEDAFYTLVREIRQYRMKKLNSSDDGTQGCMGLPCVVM

Compound: CCO[C@@H]1C[C@H]2C(=O)NC3(CCC3)C(=O)N(C)[C@@H](C3CCCC3)C(=O)N3CCC[C@@H]3CC(=O)N(C)[C@@H](CC3CC3)C(=O)N[C@@H]([C@@H](C)CC)C(=O)N(C)CC(=O)N(C)[C@H]3C/C=C\CCN(C3=O)[C@@H](Cc3ccc(C(F)(F)F)cc3)C(=O)N(C)CC(=O)N[C@@H](CCc3ccc(C(F)(F)F)c(OC)c3)C(=O)N2C1 [PP1616]
- NRAS/KRAS (ratio of KD value for NRAS to KD value for KRAS) [1]: B (a compound having 3 or more and less than 10 is denoted as B)
- HRAS/KRAS (ratio of KD value for HRAS to KD value for KRAS) [2]: B (a compound having 3 or more and less than 10 is denoted as B)

Compound: CCO[C@@H]1C[C@H]2C(=O)NC3(CC(C)(C)C3)C(=O)N(C)[C@@H](C3CCCC3)C(=O)N3CCC[C@@H]3CC(=O)N(C)[C@@H](CC)C(=O)N[C@@H]([C@@H](C)CC)C(=O)N(C)CC(=O)N(C)[C@H]3C/C=C\CCN(C3=O)[C@@H](CC3CCCCC3)C(=O)N(C)CC(=O)N[C@@H](CCc3cc(F)c(C(F)(F)F)c(F)c3)C(=O)N2C1 [PP1620]
- NRAS/KRAS (ratio of KD value for NRAS to KD value for KRAS) [1]: B (a compound having 3 or more and less than 10 is denoted as B)
- HRAS/KRAS (ratio of KD value for HRAS to KD value for KRAS) [2]: B (a compound having 3 or more and less than 10 is denoted as B)

Compound: CCO[C@@H]1C[C@H]2C(=O)NC3(CC(C)(C)C3)C(=O)N(C)[C@@H](C3CCCC3)C(=O)N(C)[C@H](CC)CC(=O)N(C)[C@@H](CC)C(=O)N[C@@H]([C@@H](C)CC)C(=O)N(C)CC(=O)N(C)[C@H]3C/C=C\CCN(C3=O)[C@@H](Cc3ccc(C(F)(F)F)cc3)C(=O)N(C)CC(=O)N[C@@H](CCc3cc(F)c(C(F)(F)F)c(F)c3)C(=O)N2C1 [PP1623]
- NRAS/KRAS (ratio of KD value for NRAS to KD value for KRAS) [1]: A (a compound having 10 or more and less than 20 is denoted as A)
- HRAS/KRAS (ratio of KD value for HRAS to KD value for KRAS) [2]: A (a compound having 10 or more and less than 20 is denoted as A)

Compound: CCO[C@@H]1C[C@H]2C(=O)NC3(CCC3)C(=O)N(C)[C@@H](C(CC)CC)C(=O)N(C)[C@H](CC)CC(=O)N(C)[C@@H](CC)C(=O)N[C@@H]([C@@H](C)CC)C(=O)N(C)CC(=O)N(C)[C@H]3C/C=C\CCN(C3=O)[C@@H](Cc3ccc(C(F)(F)F)cc3)C(=O)N(C)CC(=O)N[C@@H](CCc3cc(F)c(C(F)(F)F)c(F)c3)C(=O)N2C1 [PP1624]
- NRAS/KRAS (ratio of KD value for NRAS to KD value for KRAS) [1]: A (a compound having 10 or more and less than 20 is denoted as A)
- HRAS/KRAS (ratio of KD value for HRAS to KD value for KRAS) [2]: A (a compound having 10 or more and less than 20 is denoted as A)

Compound: CCO[C@@H]1C[C@H]2C(=O)NC3(CCC3)C(=O)N(C)[C@@H](C3CCCC3)C(=O)N(C)[C@H](CC)CC(=O)N(C)[C@@H](CC)C(=O)N[C@@H]([C@@H](C)CC)C(=O)N(C)CC(=O)N(C)[C@H]3C/C=C\CCN(C3=O)[C@@H](Cc3ccc(C(F)(F)F)cc3)C(=O)N(C)CC(=O)N[C@@H](CCc3cc(F)c(C(F)(F)F)c(F)c3)C(=O)N2C1 [PP1625]
- NRAS/KRAS (ratio of KD value for NRAS to KD value for KRAS) [1]: B (a compound having 3 or more and less than 10 is denoted as B)
- HRAS/KRAS (ratio of KD value for HRAS to KD value for KRAS) [2]: B (a compound having 3 or more and less than 10 is denoted as B)

Compound: CCO[C@@H]1C[C@H]2C(=O)NC3(CC(F)(F)C3)C(=O)N(C)[C@@H](C(CC)CC)C(=O)N(C)[C@H](CC)CC(=O)N(C)[C@@H](CC)C(=O)N[C@@H]([C@@H](C)CC)C(=O)N(C)CC(=O)N(C)[C@H]3C/C=C\CCN(C3=O)[C@@H](Cc3ccc(C(F)(F)F)cc3)C(=O)N(C)CC(=O)N[C@@H](CCc3cc(F)c(C(F)(F)F)c(F)c3)C(=O)N2C1 [PP1626]
- NRAS/KRAS (ratio of KD value for NRAS to KD value for KRAS) [1]: A (a compound having 10 or more and less than 20 is denoted as A)
- HRAS/KRAS (ratio of KD value for HRAS to KD value for KRAS) [2]: A (a compound having 10 or more and less than 20 is denoted as A)

Compound: CCO[C@@H]1C[C@H]2C(=O)NC3(CC(F)(F)C3)C(=O)N(C)[C@@H](C3CCCC3)C(=O)N(C)[C@H](CC)CC(=O)N(C)[C@@H](CC)C(=O)N[C@@H]([C@@H](C)CC)C(=O)N(C)CC(=O)N(C)[C@H]3C/C=C\CCN(C3=O)[C@@H](Cc3ccc(C(F)(F)F)cc3)C(=O)N(C)CC(=O)N[C@@H](CCc3cc(F)c(C(F)(F)F)c(F)c3)C(=O)N2C1 [PP1627]
- NRAS/KRAS (ratio of KD value for NRAS to KD value for KRAS) [1]: A (a compound having 10 or more and less than 20 is denoted as A)
- HRAS/KRAS (ratio of KD value for HRAS to KD value for KRAS) [2]: A (a compound having 10 or more and less than 20 is denoted as A)

Compound: CCO[C@@H]1C[C@H]2C(=O)NC3(CC(C)(C)C3)C(=O)N(C)[C@@H](C(CC)CC)C(=O)N(C)[C@H](CC)CC(=O)N(C)[C@@H](CC3CC3)C(=O)N[C@@H]([C@@H](C)CC)C(=O)N(C)CC(=O)N(C)[C@H]3C/C=C\CCN(C3=O)[C@@H](Cc3ccc(C(F)(F)F)cc3)C(=O)N(C)CC(=O)N[C@@H](CCc3cc(F)c(C(F)(F)F)c(F)c3)C(=O)N2C1 [PP1628]
- NRAS/KRAS (ratio of KD value for NRAS to KD value for KRAS) [1]: A (a compound having 10 or more and less than 20 is denoted as A)
- HRAS/KRAS (ratio of KD value for HRAS to KD value for KRAS) [2]: A (a compound having 10 or more and less than 20 is denoted as A)

Compound: CCO[C@@H]1C[C@H]2C(=O)NC3(CC(C)(C)C3)C(=O)N(C)[C@@H](C3CCCC3)C(=O)N(C)[C@H](CC)CC(=O)N(C)[C@@H](CC3CC3)C(=O)N[C@@H]([C@@H](C)CC)C(=O)N(C)CC(=O)N(C)[C@H]3C/C=C\CCN(C3=O)[C@@H](Cc3ccc(C(F)(F)F)cc3)C(=O)N(C)CC(=O)N[C@@H](CCc3cc(F)c(C(F)(F)F)c(F)c3)C(=O)N2C1 [PP1629]
- NRAS/KRAS (ratio of KD value for NRAS to KD value for KRAS) [1]: B (a compound having 3 or more and less than 10 is denoted as B)
- HRAS/KRAS (ratio of KD value for HRAS to KD value for KRAS) [2]: B (a compound having 3 or more and less than 10 is denoted as B)

Compound: CCO[C@@H]1C[C@H]2C(=O)NC3(CCC3)C(=O)N(C)[C@@H](C(CC)CC)C(=O)N(C)[C@H](CC)CC(=O)N(C)[C@@H](CC3CC3)C(=O)N[C@@H]([C@@H](C)CC)C(=O)N(C)CC(=O)N(C)[C@H]3C/C=C\CCN(C3=O)[C@@H](Cc3ccc(C(F)(F)F)cc3)C(=O)N(C)CC(=O)N[C@@H](CCc3cc(F)c(C(F)(F)F)c(F)c3)C(=O)N2C1 [PP1630]
- NRAS/KRAS (ratio of KD value for NRAS to KD value for KRAS) [1]: A (a compound having 10 or more and less than 20 is denoted as A)
- HRAS/KRAS (ratio of KD value for HRAS to KD value for KRAS) [2]: A (a compound having 10 or more and less than 20 is denoted as A)

Compound: CCO[C@@H]1C[C@H]2C(=O)NC3(CC(F)(F)C3)C(=O)N(C)[C@@H](C(CC)CC)C(=O)N(C)[C@H](CC)CC(=O)N(C)[C@@H](CC3CC3)C(=O)N[C@@H]([C@@H](C)CC)C(=O)N(C)CC(=O)N(C)[C@H]3C/C=C\CCN(C3=O)[C@@H](Cc3ccc(C(F)(F)F)cc3)C(=O)N(C)CC(=O)N[C@@H](CCc3cc(F)c(C(F)(F)F)c(F)c3)C(=O)N2C1 [PP1632]
- NRAS/KRAS (ratio of KD value for NRAS to KD value for KRAS) [1]: A (a compound having 10 or more and less than 20 is denoted as A)
- HRAS/KRAS (ratio of KD value for HRAS to KD value for KRAS) [2]: A (a compound having 10 or more and less than 20 is denoted as A)

Compound: CCO[C@@H]1C[C@H]2C(=O)NC3(CC(F)(F)C3)C(=O)N(C)[C@@H](C3CCCC3)C(=O)N(C)[C@H](CC)CC(=O)N(C)[C@@H](CC3CC3)C(=O)N[C@@H]([C@@H](C)CC)C(=O)N(C)CC(=O)N(C)[C@H]3C/C=C\CCN(C3=O)[C@@H](Cc3ccc(C(F)(F)F)cc3)C(=O)N(C)CC(=O)N[C@@H](CCc3cc(F)c(C(F)(F)F)c(F)c3)C(=O)N2C1 [PP1633]
- NRAS/KRAS (ratio of KD value for NRAS to KD value for KRAS) [1]: A (a compound having 10 or more and less than 20 is denoted as A)
- HRAS/KRAS (ratio of KD value for HRAS to KD value for KRAS) [2]: B (a compound having 3 or more and less than 10 is denoted as B)

Compound: CCO[C@@H]1C[C@H]2C(=O)NC3(CC(C)(C)C3)C(=O)N(C)[C@@H](C(CC)CC)C(=O)N(C)[C@H](C3CCC3)CC(=O)N(C)[C@@H](CC3CC3)C(=O)N[C@@H]([C@@H](C)CC)C(=O)N(C)CC(=O)N(C)[C@H]3C/C=C\CCN(C3=O)[C@@H](Cc3ccc(C(F)(F)F)cc3)C(=O)N(C)CC(=O)N[C@@H](CCc3cc(F)c(C(F)(F)F)c(F)c3)C(=O)N2C1 [PP1634]
- NRAS/KRAS (ratio of KD value for NRAS to KD value for KRAS) [1]: A (a compound having 10 or more and less than 20 is denoted as A)
- HRAS/KRAS (ratio of KD value for HRAS to KD value for KRAS) [2]: A (a compound having 10 or more and less than 20 is denoted as A)

Compound: CCO[C@@H]1C[C@H]2C(=O)NC3(CC(C)(C)C3)C(=O)N(C)[C@@H](C3CCCC3)C(=O)N(C)[C@H](C3CCC3)CC(=O)N(C)[C@@H](CC3CC3)C(=O)N[C@@H]([C@@H](C)CC)C(=O)N(C)CC(=O)N(C)[C@H]3C/C=C\CCN(C3=O)[C@@H](Cc3ccc(C(F)(F)F)cc3)C(=O)N(C)CC(=O)N[C@@H](CCc3cc(F)c(C(F)(F)F)c(F)c3)C(=O)N2C1 [PP1635]
- NRAS/KRAS (ratio of KD value for NRAS to KD value for KRAS) [1]: B (a compound having 3 or more and less than 10 is denoted as B)
- HRAS/KRAS (ratio of KD value for HRAS to KD value for KRAS) [2]: A (a compound having 10 or more and less than 20 is denoted as A)

Compound: CCO[C@@H]1C[C@H]2C(=O)NC3(CCC3)C(=O)N(C)[C@@H](C(CC)CC)C(=O)N(C)[C@H](C3CCC3)CC(=O)N(C)[C@@H](CC3CC3)C(=O)N[C@@H]([C@@H](C)CC)C(=O)N(C)CC(=O)N(C)[C@H]3C/C=C\CCN(C3=O)[C@@H](Cc3ccc(C(F)(F)F)cc3)C(=O)N(C)CC(=O)N[C@@H](CCc3cc(F)c(C(F)(F)F)c(F)c3)C(=O)N2C1 [PP1636]
- NRAS/KRAS (ratio of KD value for NRAS to KD value for KRAS) [1]: A (a compound having 10 or more and less than 20 is denoted as A)
- HRAS/KRAS (ratio of KD value for HRAS to KD value for KRAS) [2]: A (a compound having 10 or more and less than 20 is denoted as A)

Compound: CCO[C@@H]1C[C@H]2C(=O)NC3(CCC3)C(=O)N(C)[C@@H](C3CCCC3)C(=O)N(C)[C@H](C3CCC3)CC(=O)N(C)[C@@H](CC3CC3)C(=O)N[C@@H]([C@@H](C)CC)C(=O)N(C)CC(=O)N(C)[C@H]3C/C=C\CCN(C3=O)[C@@H](Cc3ccc(C(F)(F)F)cc3)C(=O)N(C)CC(=O)N[C@@H](CCc3cc(F)c(C(F)(F)F)c(F)c3)C(=O)N2C1 [PP1637]
- NRAS/KRAS (ratio of KD value for NRAS to KD value for KRAS) [1]: A (a compound having 10 or more and less than 20 is denoted as A)
- HRAS/KRAS (ratio of KD value for HRAS to KD value for KRAS) [2]: A (a compound having 10 or more and less than 20 is denoted as A)
